For this assay, the system named is BDF1 mice, P388 leukemia ip, median survival T/C. As to the kind of experiment: NCI In Vivo Anticancer Drug Screen. Data for tumor model P388 Leukemia (intraperitoneal) in B6D2F1 (BDF1) mice. The note with it: endpoint: median survival time, higher = longer survival. Summed up: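 T/C = treated-group survival ÷ vehicle-control survival; tumour transplanted into mice before dosing.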

[1] abbreviates: dose: 100.0 mg/kg/injection, schedule: Q01DX009 (ip), vehicle: saline with Tween-80.
Setting [2] is: dose: 100.0 mg/kg/injection, schedule: Q04DX003 (ip), vehicle: saline with Tween-80.
Setting [3] is: dose: 200.0 mg/kg/injection, schedule: Q01DX009 (ip), vehicle: saline with Tween-80.
Setting [4] is: dose: 200.0 mg/kg/injection, schedule: Q04DX003 (ip), vehicle: saline with Tween-80.
The mark [5] stands for this setting: dose: 400.0 mg/kg/injection, schedule: Q01DX009 (ip), vehicle: saline with Tween-80.
Where [6] appears, read: dose: 400.0 mg/kg/injection, schedule: Q04DX003 (ip), vehicle: saline with Tween-80.
The mark [7] stands for this setting: dose: 100.0 mg/kg/injection, schedule: Q01DX001 (ip), vehicle: saline with Tween-80.
The mark [8] stands for this setting: dose: 200.0 mg/kg/injection, schedule: Q01DX001 (ip), vehicle: saline with Tween-80.
The mark [9] stands for this setting: dose: 400.0 mg/kg/injection, schedule: Q01DX001 (ip), vehicle: saline with Tween-80.
The mark [10] stands for this setting: dose: 100.0 mg/kg/injection, schedule: Q01DX009 (ip), vehicle: Klucel (hydroxypropylcellulose) (HPC).
Where [11] appears, read: dose: 100.0 mg/kg/injection, schedule: Q04DX003 (ip), vehicle: Klucel (hydroxypropylcellulose) (HPC).
Setting [12] is: dose: 200.0 mg/kg/injection, schedule: Q01DX009 (ip), vehicle: Klucel (hydroxypropylcellulose) (HPC).
Where [13] appears, read: dose: 200.0 mg/kg/injection, schedule: Q04DX003 (ip), vehicle: Klucel (hydroxypropylcellulose) (HPC).
The mark [14] stands for this setting: dose: 400.0 mg/kg/injection, schedule: Q04DX003 (ip), vehicle: Klucel (hydroxypropylcellulose) (HPC).
Where [15] appears, read: dose: 2.5 mg/kg/injection, schedule: Q01DX009 (ip), vehicle: saline.
Setting [16] is: dose: 50.0 mg/kg/injection, schedule: Q04DX003 (ip), vehicle: saline.
[17] abbreviates: dose: 50.0 mg/kg/injection, schedule: Q01DX009 (ip), vehicle: saline with Tween-80.

Where “and” joins values, the source holds several entries; their conditions need not be identical. Equal entries are not always repeated. Inconclusive results and toxic doses are left out.

Take `Cc1cc(C)nc(NNc2nc(C)cc(C)n2)n1`: the T/C was 92 % of control under setting [1]; 91 % of control under setting [2]; 103 % of control under setting [3]; 95 % of control under setting [4]; 89 % of control under setting [5]; 95 % of control under setting [6].
Turning to `COc1cccc(CC2c3ccccc3Nc3ccccc32)c1`, the T/C under setting [7] was 88 % of control, the T/C under setting [8] was 87 % of control and the T/C under setting [9] is 89 % of control.
With `Cc1cccc(NC(=S)N(C)C)c1`, the T/C is 95 % of control under setting [2], 100 % of control under setting [4] and 100 % of control under setting [6].
Turning to `Clc1ccc(-c2n[se]c(-c3ccc(Cl)cc3)n2)cc1`, the T/C is, setting by setting: (dose: 0.19 mg/kg/injection, schedule: Q01DX009 (ip), vehicle: saline with Tween-80) 98 % of control; (dose: 0.39 mg/kg/injection, schedule: Q01DX009 (ip), vehicle: saline with Tween-80) 101 % of control; (dose: 0.78 mg/kg/injection, schedule: Q01DX009 (ip), vehicle: saline with Tween-80) 95 % of control; (dose: 1.56 mg/kg/injection, schedule: Q01DX009 (ip), vehicle: saline with Tween-80) 96 % of control.
As to `O=C(NNC1CCN(Cc2ccccc2)CC1)c1ccccc1`, the T/C runs as follows: (dose: 1.1 mg/kg/injection, schedule: Q04DX003 (ip), vehicle: saline with Tween-80) 100 % of control; (dose: 1.65 mg/kg/injection, schedule: Q04DX003 (ip), vehicle: saline with Tween-80) 100 % of control; (dose: 2.5 mg/kg/injection, schedule: Q04DX003 (ip), vehicle: saline with Tween-80) 100 % of control; (dose: 3.75 mg/kg/injection, schedule: Q04DX003 (ip), vehicle: saline with Tween-80) 100 % of control; (dose: 5.0 mg/kg/injection, schedule: Q04DX003 (ip), vehicle: saline with Tween-80) 104 % of control; (dose: 10.0 mg/kg/injection, schedule: Q04DX003 (ip), vehicle: saline with Tween-80) 104 % of control.
With `Nc1nc(Cl)nc2c1ncn2C1OC(CO)C(O)C1O` (centres undefined), the T/C (dose: 12.5 mg/kg/injection, schedule: Q01DX010 (ip), vehicle: carboxymethylcellulose (CMC)) is 123 % of control; the T/C (dose: 50.0 mg/kg/injection, schedule: Q01DX010 (ip), vehicle: carboxymethylcellulose (CMC)) was 161 % of control; the T/C (dose: 100.0 mg/kg/injection, schedule: Q01DX010 (ip), vehicle: carboxymethylcellulose (CMC)) was 238 % of control; the T/C (dose: 112.5 mg/kg/injection, schedule: Q01DX009 (ip), vehicle: saline) is 159 % of control and 191 % of control; the T/C (dose: 168.75 mg/kg/injection, schedule: Q01DX009 (ip), vehicle: saline) is 177 % of control.
Take `CCOC(=O)C1CCC(C(=O)OCC)N1c1ccc(C=O)cc1` (centres undefined): the T/C under setting [10] was 122 % of control; the T/C under setting [11] was 105 % of control; the T/C under setting [12] was 105 % of control; the T/C under setting [13] is 100 % of control; the T/C (dose: 400.0 mg/kg/injection, schedule: Q01DX009 (ip), vehicle: Klucel (hydroxypropylcellulose) (HPC)) is 122 % of control; the T/C under setting [14] is 100 % of control.
In the case of `CC(C)CC(NC(=O)CF)C(=O)O` (centres undefined), the T/C under setting [15] was 111 % of control.
For `CCOC(=O)c1cnc(C)[nH]c1=O`, the T/C by setting is: (dose: 25.0 mg/kg/injection, schedule: Q01DX009 (ip), vehicle: saline) 113 % of control; (dose: 50.0 mg/kg/injection, schedule: Q01DX009 (ip), vehicle: saline) 118 % of control; under setting [16], 100 % of control; (dose: 100.0 mg/kg/injection, schedule: Q01DX009 (ip), vehicle: saline) 100 % of control; (dose: 100.0 mg/kg/injection, schedule: Q04DX003 (ip), vehicle: saline) 104 % of control; (dose: 200.0 mg/kg/injection, schedule: Q04DX003 (ip), vehicle: saline) 86 % of control.
Regarding `COc1ccc(CC(Cc2ccc(OC)c(OC)c2)NC=O)cc1OC`, the T/C was 99 % of control under setting [1]; 101 % of control under setting [2]; 91 % of control under setting [3]; 102 % of control under setting [4]; 87 % of control under setting [5]; 116 % of control under setting [6].
With `CC(O)(CCCCCCCC(C)(O)c1ccccc1)c1ccccc1` (centres undefined), the T/C reads like this: under setting [7], 100 % of control; under setting [8], 100 % of control; under setting [9], 100 % of control.
Regarding `Cc1c(Cl)cccc1NC(=O)c1ccccc1C(=O)O`, the T/C was 91 % of control under setting [11], 95 % of control under setting [13] and 100 % of control under setting [14].
In the case of `COC(=O)C1=COC(C)C(C=O)C1CC(=O)O` (centres undefined), the T/C (dose: 10.0 mg/kg/injection, schedule: Q04DX003 (ip), vehicle: saline) was 113 % of control; the T/C (dose: 22.0 mg/kg/injection, schedule: Q04DX003 (ip), vehicle: saline) is 122 % of control; the T/C (dose: 33.0 mg/kg/injection, schedule: Q04DX003 (ip), vehicle: saline) is 120 % of control; the T/C under setting [16] was 172 % of control; the T/C (dose: 75.0 mg/kg/injection, schedule: Q04DX003 (ip), vehicle: saline) is 95 % of control.
In the case of `COC(=O)NC1C(C)C=CC(C)C1I` (centres undefined), the T/C under setting [1] is 95 % of control; the T/C under setting [3] was 113 % of control; the T/C under setting [4] is 105 % of control; the T/C under setting [5] is 100 % of control; the T/C under setting [6] was 110 % of control.
Turning to `Nc1c(Cl)c(Cl)nc(C(=O)O)c1Cl`, the T/C reads like this: under setting [15], 102 % of control; (dose: 5.0 mg/kg/injection, schedule: Q01DX009 (ip), vehicle: saline) 106 % of control; (dose: 6.25 mg/kg/injection, schedule: Q01DX009 (ip), vehicle: Klucel (hydroxypropylcellulose) (HPC)) 104 % of control; (dose: 10.0 mg/kg/injection, schedule: Q01DX009 (ip), vehicle: saline) 113 % of control; (dose: 12.5 mg/kg/injection, schedule: Q01DX009 (ip), vehicle: Klucel (hydroxypropylcellulose) (HPC)) 95 % of control; (dose: 20.0 mg/kg/injection, schedule: Q01DX009 (ip), vehicle: saline) 115 % of control. Besides, the T/C (dose: 25.0 mg/kg/injection, schedule: Q01DX009 (ip), vehicle: Klucel (hydroxypropylcellulose) (HPC)) was 104 % of control; the T/C (dose: 40.0 mg/kg/injection, schedule: Q01DX009 (ip), vehicle: saline) was 106 % of control; the T/C (dose: 50.0 mg/kg/injection, schedule: Q01DX009 (ip), vehicle: Klucel (hydroxypropylcellulose) (HPC)) is 106 % of control; the T/C under setting [10] was 98 % of control.
Consider `O=C(NCCCCCCCCCCNC(=O)N1CC1)N1CC1`, for which the T/C runs as follows: (dose: 3.0 mg/kg/injection, schedule: Q04DX003 (ip), vehicle: saline with Tween-80) 154 % of control; (dose: 4.5 mg/kg/injection, schedule: Q04DX003 (ip), vehicle: saline with Tween-80) 241 % of control.
For the compound `ClC(Cl)(Cl)C1OCOC(C(Cl)(Cl)Cl)OCO1` (centres undefined), the T/C under setting [11] was 90 % of control, the T/C under setting [13] is 100 % of control and the T/C under setting [14] was 90 % of control.
Consider `Cn1c(=O)c(-c2ccccc2)[n+]([O-])c2ccccc21`, for which the T/C runs as follows: (dose: 25.0 mg/kg/injection, schedule: Q01DX009 (ip), vehicle: saline with Tween-80) 98 % of control; under setting [17], 107 % of control; under setting [1], 100 % of control; under setting [3], 113 % of control.
`CC(=O)OCCC/C(=C/c1cc2ccccc2c2ccccc12)[N+](=O)[O-]`: the T/C is 115 % of control under setting [10] and 120 % of control under setting [12].
Consider `CCCCCCCCCCSc1ncnc2nc[nH]c12`, for which the T/C is 87 % of control under setting [17], 100 % of control under setting [2], 108 % of control under setting [3] and 100 % of control under setting [4].
Take `O=C(N=Nc1c(O)[nH]c2c(Cl)cc(Cl)cc12)C(=O)Nc1cccc(C(F)(F)F)c1`: the T/C under setting [1] is 90 % of control and the T/C under setting [3] was 96 % of control.
